Measured values as given in paper PMC3006138, “Fexinidazole – A New Oral Nitroimidazole Drug Candidate Entering Clinical Development for the Treatment of Sleeping Sickness” (PLoS Neglected Tropical Diseases, 2010).
Read-outs that look alike come from different tables or passages of the source.

Assay: Rat 28-day toxicokinetics
Format: in vivo
Details: plasma, po; for AUC: read-out: AUC within 24 hours post dosing; for half-life: read-out: apparent terminal half-life (converted)
Method: In the rat repeated-dose toxicokinetic study, fexinidazole was administered orally by gavage once a day for 28 consecutive days to ten or fifteen Crl:CD (SD)IGS BR rats/sex/group at doses of 50, 200, or 800 mg/kg/day. A control group received the vehicle alone (5% Tween 80/0.5% methocel). Ten animals/sex/group were sacrificed at the end of the treatment period on day 29 or 30 of study. The remaining 5 animals/sex/group in the control and high-dose groups were sacrificed on day 43 at the end of a 2-weeks observation period. Systemic exposure to fexinidazole and its sulfoxide and sulfone metabolites was evaluated in three additional animals/sex/group. Samples were taken at predose, and 30 min, 1, 2, 4, 8 and 24 h after dosing on days 1, 14, and 28, and in addition at 48 and 72 h after treatment on day 28.
Toxicokinetic Report for the study No. 0504-2007
SD Standard deviation of the mean […]
t1/2,z Terminal half-life tmax Time to peak plasma concentration
ULOQ Upper limit of quantification
The study was conducted according to the study protocol and related amendment.
Fexinidazole was orally given by gavage once a day for 28 days to male and female Sprague Dawley rats according to the following scheme
Fexinidazole was suspended with 5% Tween 80 in 0.5% Methyl cellulose 400 cP.
6.2. Sample Collection and Handling
Blood samples (about 0.25 mL/sampling time) were withdrawn from retro-orbital sinus plexus under isofluorane anesthesia and put in heparinized plastic tubes kept on a ice-water bath, then centrifuged for 10 min at 1200g at +4°C and two aliquots of about 50 μL of plasma were stored in a freezer at -80°C until analysis. Blood was taken from three rats/gender/dose on Days 1 and 14 at pre-dose and 0.5, 1, 2, 4, 8 and 24 hours after dosing, on Day 28 at pre-dose and 1, 2, 4, 8, 24, 48 and 72 hours after dosing. After the administration of the vehicle, the samples were taken from three rats/gender at pre-dose and […]
6.3. Bioanalytical Method
Rat plasma concentrations of Fexinidazole and its sulfoxide (M1) and sulfone (M2) metabolites were determined by a validated LC/MS/MS method. The calibration range for the assay was 5-1000 ng/mL for Fexinidazole and 25-25000 ng/mL for M1 and M2.
Study samples containing analytes concentrations above the upper limit of quantitation were diluted with blank matrix prior to analysis.
6.4. Pharmacokinetic Calculations
Pharmacokinetic evaluation was carried out using non-compartmental approach with the aid […]
Excel spreadsheet (Microsoft Inc., Seattle, USA). […]
In the calculations, the undetectable concentrations between detectable ones were ignored.
After each dose level, Cmax and tmax of Fexinidazole and sulfoxide and sulfone metabolites […]
linear trapezoidal rule up to the last detectable concentration. On Day 28, since the blood […]
24 hours post dosing was calculated and denoted AUC0-24. This AUC was calculated in order to compare AUC values on Day 28 to those on Day 1 and Day 14. On Day 28, in addition, the half-life of the terminal phase, t1/2,z, was determined by linear regression analysis of the natural-log concentration vs. time curve, where t1/2,z = ln(2)/slope of the regression line.
Fexinidazole and metabolites accumulation ratios, based on Cmax (RA,Cmax), AUC0-24 (RA,AUC0-24) and AUC0-t(last) (RA,AUC0-t(last)), were calculated as the ratio between the parameters obtained on Day 14 and Day 28 to the corresponding one at Day 1. […]
pharmacokinetic parameters of each compound sorted by dose, gender and day of dosing. […]
compound are reported in Tables 1 and 2, whilst individual and mean parameters of each […]
Individual and mean (±SD, CV%) plasma
2A1 - 19A1 of Appendix 1. Individual plasma concentrations of Fexinidazole and both metabolites are plot in Figures 1 - 9, whilst the mean concentrations are plot in Figures 10 - 15. Mean normalized Cmax and AUC0-t(last) values of Fexinidazole and metabolites vs. dose are plot in Figures 16 - 21.
In-study bioanalytical validation data are reported in Appendix 2. All analytical batches met […]

[1] = Sprague Dawley (Crl:CD (SD)IGS BR), 50 mg/kg/day, Day 28, female
[2] = Sprague Dawley (Crl:CD (SD)IGS BR), 50 mg/kg/day, Day 28, male
[3] = Sprague Dawley (Crl:CD (SD)IGS BR), 200 mg/kg/day, Day 28, female
[4] = Sprague Dawley (Crl:CD (SD)IGS BR), 200 mg/kg/day, Day 28, male
[5] = Sprague Dawley (Crl:CD (SD)IGS BR), 800 mg/kg/day, Day 28, female (n=2)
[6] = Sprague Dawley (Crl:CD (SD)IGS BR), 800 mg/kg/day, Day 28, male
[7] = Sprague-Dawley (Crl:CD (SD)IGS BR), 50 mg/kg/day, 50 mg/kg/day po, day 1
[8] = Sprague-Dawley (Crl:CD (SD)IGS BR), 50 mg/kg/day, 50 mg/kg/day po, day 14
[9] = Sprague-Dawley (Crl:CD (SD)IGS BR), 200 mg/kg/day, 200 mg/kg/day po, day 1
[10] = both sexes, Sprague-Dawley (Crl:CD (SD)IGS BR), 200 mg/kg/day, 200 mg/kg/day po, day 14
[11] = both sexes, Sprague-Dawley (Crl:CD (SD)IGS BR), 800 mg/kg/day, 800 mg/kg/day po, day 1
[12] = both sexes, Sprague-Dawley (Crl:CD (SD)IGS BR), 800 mg/kg/day, 800 mg/kg/day po, day 14

## Cn1c([N+](=O)[O-])cnc1COc1ccc([S+](C)[O-])cc1 (stereo not drawn) [Fexinidazole sulfoxide]
[1]
  AUC: 53.8 ± 15.7 µg·h/mL
  half-life: 6.1 ± 3.8 h
[2]
  AUC: 29.5 ± 8.92 µg·h/mL
  half-life: 5 ± 2 h
[3]
  AUC: 138 ± 14.2 µg·h/mL
  half-life: 8.1 ± 3.1 h
[4]
  AUC: 122 ± 29.3 µg·h/mL
  half-life: 6.3 ± 2.9 h
[5]
  AUC: 292 ± 40.3 µg·h/mL
  half-life: 8.6 ± 2.3 h
[6]
  AUC: 130 ± 56.8 µg·h/mL
  half-life: 6.6 ± 4.1 h
[7]
  Cmax: 2700 ± 1400 ng/mL
  Tmax: 2.5 ± 1.22 h
Sprague-Dawley (Crl:CD (SD)IGS BR), 50 mg/kg/day, 50 mg/kg/day po, day 1, read-out: AUC0-t(last)
  AUC(0-t): 15.4 ± 9.28 µg·h/mL
[8]
  Cmax: 5230 ± 3280 ng/mL
  Tmax: 2.17 ± 0.98 h
Sprague-Dawley (Crl:CD (SD)IGS BR), 50 mg/kg/day, 50 mg/kg/day po, day 14, read-out: AUC0-t(last)
  AUC(0-t): 29.8 ± 19.4 µg·h/mL
[9]
  Cmax: 11400 ± 2170 ng/mL
  Tmax: 2.33 ± 0.82 h
Both sexes, Sprague-Dawley (Crl:CD (SD)IGS BR), 200 mg/kg/day, 200 mg/kg/day po, day 1, read-out: AUC0-t(last)
  AUC(0-t): 85.9 ± 14.1 µg·h/mL
[10]
  Cmax: 15800 ± 3170 ng/mL
  Tmax: 3.33 ± 1.03 h
Both sexes, Sprague-Dawley (Crl:CD (SD)IGS BR), 200 mg/kg/day, 200 mg/kg/day po, day 14, read-out: AUC0-t(last)
  AUC(0-t): 118 ± 38.9 µg·h/mL
[11]
  Cmax: 31700 ± 3740 ng/mL
  Tmax: 4.67 ± 1.63 h
Both sexes, Sprague-Dawley (Crl:CD (SD)IGS BR), 800 mg/kg/day, 800 mg/kg/day po, day 1, read-out: AUC0-t(last)
  AUC(0-t): 410 ± 101 µg·h/mL
[12]
  Cmax: 25000 ± 8990 ng/mL
  Tmax: 2.67 ± 1.03 h
Both sexes, Sprague-Dawley (Crl:CD (SD)IGS BR), 800 mg/kg/day, 800 mg/kg/day po, day 14, read-out: AUC0-t(last)
  AUC(0-t): 277 ± 160 µg·h/mL
female, Sprague Dawley (Crl:CD (SD)IGS BR), 50 mg/kg, Day 1, female
  Cmax: 3890 ± 663 ng/mL
female, Sprague Dawley (Crl:CD (SD)IGS BR), 50 mg/kg, Day 1, female, read-out: AUC0-t(last)
  AUC(0-t): 23.2 ± 5.33 µg·h/mL
female, Sprague Dawley (Crl:CD (SD)IGS BR), 50 mg/kg/day, Day 28, female
  Cmax: 11400 ± 6600 ng/mL
female, Sprague Dawley (Crl:CD (SD)IGS BR), 50 mg/kg/day, Day 28, female, read-out: AUC0-t(last)
  AUC(0-t): 78 ± 23.6 µg·h/mL
female, Sprague Dawley (Crl:CD (SD)IGS BR), 200 mg/kg, Day 1, female
  Cmax: 12800 ± 1130 ng/mL
female, Sprague Dawley (Crl:CD (SD)IGS BR), 200 mg/kg, Day 1, female, read-out: AUC0-t(last)
  AUC(0-t): 91.4 ± 19.7 µg·h/mL
female, Sprague Dawley (Crl:CD (SD)IGS BR), 200 mg/kg/day, Day 28, female
  Cmax: 22300 ± 1470 ng/mL
female, Sprague Dawley (Crl:CD (SD)IGS BR), 200 mg/kg/day, Day 28, female, read-out: AUC0-t(last)
  AUC(0-t): 153 ± 36.9 µg·h/mL
female, Sprague Dawley (Crl:CD (SD)IGS BR), 800 mg/kg, Day 1, female
  Cmax: 30600 ± 2620 ng/mL
female, Sprague Dawley (Crl:CD (SD)IGS BR), 800 mg/kg, Day 1, female, read-out: AUC0-t(last)
  AUC(0-t): 453 ± 84.7 µg·h/mL
female, Sprague Dawley (Crl:CD (SD)IGS BR), 800 mg/kg/day, Day 28, female (n=2)
  Cmax: 25800 ± 2050 ng/mL
female, Sprague Dawley (Crl:CD (SD)IGS BR), 800 mg/kg/day, Day 28, female (n=2), read-out: AUC0-t(last)
  AUC(0-t): 331 ± 57.3 µg·h/mL
male, Sprague Dawley (Crl:CD (SD)IGS BR), 50 mg/kg, Day 1, male
  Cmax: 1500 ± 413 ng/mL
male, Sprague Dawley (Crl:CD (SD)IGS BR), 50 mg/kg, Day 1, male, read-out: AUC0-t(last)
  AUC(0-t): 7.66 ± 2.38 µg·h/mL
male, Sprague Dawley (Crl:CD (SD)IGS BR), 50 mg/kg/day, Day 28, male
  Cmax: 4530 ± 664 ng/mL
male, Sprague Dawley (Crl:CD (SD)IGS BR), 50 mg/kg/day, Day 28, male, read-out: AUC0-t(last)
  AUC(0-t): 30.6 ± 10.9 µg·h/mL
male, Sprague Dawley (Crl:CD (SD)IGS BR), 200 mg/kg, Day 1, male
  Cmax: 9990 ± 2130 ng/mL
male, Sprague Dawley (Crl:CD (SD)IGS BR), 200 mg/kg, Day 1, male, read-out: AUC0-t(last)
  AUC(0-t): 80.5 ± 4.31 µg·h/mL
male, Sprague Dawley (Crl:CD (SD)IGS BR), 200 mg/kg/day, Day 28, male
  Cmax: 11600 ± 2400 ng/mL
male, Sprague Dawley (Crl:CD (SD)IGS BR), 200 mg/kg/day, Day 28, male, read-out: AUC0-t(last)
  AUC(0-t): 138 ± 45 µg·h/mL
male, Sprague Dawley (Crl:CD (SD)IGS BR), 800 mg/kg, Day 1, male
  Cmax: 32800 ± 4950 ng/mL
male, Sprague Dawley (Crl:CD (SD)IGS BR), 800 mg/kg, Day 1, male, read-out: AUC0-t(last)
  AUC(0-t): 366 ± 113 µg·h/mL
male, Sprague Dawley (Crl:CD (SD)IGS BR), 800 mg/kg/day, Day 28, male
  Cmax: 16600 ± 2080 ng/mL
male, Sprague Dawley (Crl:CD (SD)IGS BR), 800 mg/kg/day, Day 28, male, read-out: AUC0-t(last)
  AUC(0-t): 268 ± 64.1 µg·h/mL
